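Exposure lasted 48 hours, with cells grown in 96-well plates and compounds tested at five concentrations. At the GI50, growth is halved.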 Active and inactive are the calls of the source. Cut-off read from the data, not from the text of the source: active = GI50 up to about 1.1 µM and inactive = higher.
Experiments:
Assay in all cases: growth of human tumour cells (NCI), 48 h
NCI-H522 = test system: NCI-H522
OVCAR-8 = test system: OVCAR-8
PC-3 = test system: PC-3
NCI-H460 = test system: NCI-H460
SK-MEL-28 = test system: SK-MEL-28
SK-MEL-5 = test system: SK-MEL-5
Malme-3M = test system: Malme-3M
Hs-578T = test system: Hs-578T
786-0 = test system: 786-0
MDA-N = test system: MDA-N
SN12C = test system: SN12C
SNB-19 = test system: SNB-19
OVCAR-4 = test system: OVCAR-4
U-251 = test system: U-251
HT-29 = test system: HT-29
HL-60 = test system: HL-60
CCRF-CEM = test system: CCRF-CEM
SK-OV-3 = test system: SK-OV-3
UACC-62 = test system: UACC-62
MCF7 = test system: MCF7

Row | SMILES | GI50 (NCI-H522) | GI50 (OVCAR-8) | GI50 (PC-3) | GI50 (NCI-H460) | GI50 (SK-MEL-28) | GI50 (SK-MEL-5) | GI50 (Malme-3M) | GI50 (Hs-578T) | GI50 (786-0) | GI50 (MDA-N) | GI50 (SN12C) | GI50 (SNB-19) | GI50 (OVCAR-4) | GI50 (U-251) | GI50 (HT-29) | GI50 (HL-60) | GI50 (CCRF-CEM) | GI50 (SK-OV-3) | GI50 (UACC-62) | GI50 (MCF7)
1 | C/C(=N\N=C(/[SeH])N1CC2CCC(CC2)C1)c1ccccn1 | 0.161 µM (active) | 0.0137 µM (active) | 0.0647 µM (active) | 0.0568 µM (active) | 0.0955 µM (active) | 0.051 µM (active) | 0.0506 µM (active) | 0.198 µM (active) | 0.211 µM (active) | 0.226 µM (active) | 0.228 µM (active) | 0.2 µM (active) | 0.03 µM (active) | 0.091 µM (active) | < 0.01 µM (active) | 0.0166 µM (active) | 0.0111 µM (active) | 0.356 µM (active) | 0.0596 µM (active) | < 0.01 µM (active)
2 | CC1Oc2cc3c(-c4c(O)cc(O)c5c(O)c6c(cc45)OC(C)C(C)C6=O)c(O)cc(O)c3c(O)c2C(=O)C1C (stereo not given) | 0.343 µM (active) | 0.0859 µM (active) | 0.0546 µM (active) | 0.0259 µM (active) | 0.698 µM (active) | 0.158 µM (active) | 0.265 µM (active) | 0.0439 µM (active) | 0.102 µM (active) | 0.359 µM (active) | 0.11 µM (active) | 0.0832 µM (active) | 0.0869 µM (active) | 0.038 µM (active) | 0.0289 µM (active) | 0.24 µM (active) | 0.0279 µM (active) | 0.363 µM (active) | 0.372 µM (active) | 0.147 µM (active)
3 | COc1cc2c(c(O)c1OC)C(=O)[C@@H]1CCC(=O)N1C2c1ccccc1 (stereo not given in full) | 28.5 µM (inactive) | 57.5 µM (inactive) | 31.8 µM (inactive) | > 100 µM (inactive) | > 100 µM (inactive) | > 10 µM (inactive) | > 100 µM (inactive) | 40.5 µM (inactive) | > 100 µM (inactive) | > 100 µM (inactive) | > 100 µM (inactive) | > 100 µM (inactive) | > 100 µM (inactive) | 63.1 µM (inactive) | 87.7 µM (inactive) | 45.5 µM (inactive) | 30.5 µM (inactive) | > 100 µM (inactive) | 44.5 µM (inactive) | > 100 µM (inactive)
4 | N=C(N)NS(=O)(=O)c1ccc(Nc2c3ccccc3nc3c(C(=O)NNCCO)cccc23)cc1 | 0.127 µM (active) | 0.303 µM (active) | 0.303 µM (active) | 0.158 µM (active) | 0.252 µM (active) | 0.123 µM (active) | 0.14 µM (active) | 0.249 µM (active) | 0.436 µM (active) | 0.136 µM (active) | 0.282 µM (active) | 0.276 µM (active) | 0.295 µM (active) | 0.139 µM (active) | 0.352 µM (active) | 0.227 µM (active) | 0.0541 µM (active) | > 1 µM (active) | 0.27 µM (active) | 0.109 µM (active)
5 | Oc1ccc(Br)cc1/C=N/c1cccc(C(F)(F)F)c1 | > 100 µM (inactive) | 30.4 µM (inactive) | 7.16 µM (inactive) | > 100 µM (inactive) | 36.1 µM (inactive) | 28.3 µM (inactive) | 23.5 µM (inactive) | 28 µM (inactive) | 30.4 µM (inactive) | 32.9 µM (inactive) | 30.5 µM (inactive) | 39.4 µM (inactive) | 34.8 µM (inactive) | 6.89 µM (inactive) | 37.8 µM (inactive) | 3.2 µM (inactive) | 3.37 µM (inactive) | 45.7 µM (inactive) | 25.1 µM (inactive) | 14.5 µM (inactive)
6 | C=C1C(=O)O[C@H]2[C@H]3O[C@@H](C[C@@H]12)[C@@]1(C)CC[C@H](O1)C(C)=CCC[C@H]3C | 1.77 µM (inactive) | 1.44 µM (inactive) | 1.49 µM (inactive) | 2.07 µM (inactive) | 1.82 µM (inactive) | 1.49 µM (inactive) | 1.75 µM (inactive) | 2.65 µM (inactive) | 1.31 µM (inactive) | 1.53 µM (inactive) | 1.65 µM (inactive) | 6.35 µM (inactive) | 1.59 µM (inactive) | 1.61 µM (inactive) | 1.34 µM (inactive) | 0.278 µM (active) | 0.324 µM (active) | 4.58 µM (inactive) | 1.53 µM (inactive) | 1.43 µM (inactive)
7 | COc1ccccc1C1ON=C(c2ccc([N+](=O)[O-])cc2)N1C12CC3CC(CC(C3)C1)C2 (stereo not given) | 73.8 µM (inactive) | > 100 µM (inactive) | 33 µM (inactive) | 47.9 µM (inactive) | > 100 µM (inactive) | 59.6 µM (inactive) | 61.5 µM (inactive) | 37.9 µM (inactive) | > 100 µM (inactive) | > 100 µM (inactive) | > 100 µM (inactive) | > 100 µM (inactive) | > 100 µM (inactive) | > 100 µM (inactive) | 45.4 µM (inactive) | 4.35 µM (inactive) | 28.7 µM (inactive) | > 100 µM (inactive) | > 100 µM (inactive) | 47.9 µM (inactive)
8 | COC(=O)/C(C#N)=C/c1cc(C(C)(C)C)c(O)c(C(C)(C)C)c1 | 0.984 µM (active) | 2.99 µM (inactive) | 2.11 µM (inactive) | 1.95 µM (inactive) | 2.62 µM (inactive) | 1.18 µM (inactive) | 5.55 µM (inactive) | 3.55 µM (inactive) | 3.15 µM (inactive) | 2.92 µM (inactive) | 1.48 µM (inactive) | 3.17 µM (inactive) | 1.85 µM (inactive) | 2.26 µM (inactive) | 2.82 µM (inactive) | 1.88 µM (inactive) | 1.9 µM (inactive) | 2.48 µM (inactive) | 1.76 µM (inactive) | 2.66 µM (inactive)
9 | Cc1cc(S(=O)(=O)Nc2nc(N)nc(N3N=CCC3C)n2)c(SCC(=O)O)cc1Cl (stereo not given) | > 10 µM (inactive) | > 10 µM (inactive) | > 10 µM (inactive) | > 10 µM (inactive) | > 10 µM (inactive) | > 10 µM (inactive) | > 10 µM (inactive) | > 10 µM (inactive) | > 10 µM (inactive) | > 10 µM (inactive) | > 10 µM (inactive) | > 10 µM (inactive) | > 10 µM (inactive) | > 10 µM (inactive) | > 10 µM (inactive) | > 10 µM (inactive) | > 10 µM (inactive) | > 10 µM (inactive) | > 10 µM (inactive) | > 10 µM (inactive)
10 | COC(=O)/C(=N\NC(N)=O)C(C(=O)C(=O)Nc1ccccc1OC)c1nc2ccc([N+](=O)[O-])cc2nc1O (stereo not given) | > 100 µM (inactive) | > 100 µM (inactive) | > 100 µM (inactive) | > 100 µM (inactive) | > 100 µM (inactive) | > 100 µM (inactive) | > 100 µM (inactive) | 82.2 µM (inactive) | > 100 µM (inactive) | 55.1 µM (inactive) | > 100 µM (inactive) | > 100 µM (inactive) | 53 µM (inactive) | > 100 µM (inactive) | > 100 µM (inactive) | > 100 µM (inactive) | > 100 µM (inactive) | > 100 µM (inactive) | > 100 µM (inactive) | > 100 µM (inactive)
11 | C=CC[C@H](N=C(SC)SC)C(=O)N1C(=O)N(C)[C@@H](C)[C@H]1c1ccccc1 | 14.9 µM (inactive) | 51.1 µM (inactive) | 33.7 µM (inactive) | 34.1 µM (inactive) | 39.5 µM (inactive) | 20 µM (inactive) | 51.6 µM (inactive) | 21.3 µM (inactive) | 46.6 µM (inactive) | 33.8 µM (inactive) | 40.7 µM (inactive) | 58.7 µM (inactive) | 29.9 µM (inactive) | 40.8 µM (inactive) | 38.6 µM (inactive) | 34 µM (inactive) | 22.3 µM (inactive) | 75 µM (inactive) | 35.1 µM (inactive) | 34.8 µM (inactive)
12 | COCc1nc2c(OC)c(-c3nc4ccc(N5CCN(C)CC5)nc4[nH]3)cc(OC)c2[nH]1 | 37.7 µM (inactive) | 82.6 µM (inactive) | 33.3 µM (inactive) | 35.3 µM (inactive) | 28 µM (inactive) | 18.6 µM (inactive) | 20.7 µM (inactive) | > 100 µM (inactive) | 40.7 µM (inactive) | 73.3 µM (inactive) | 51.5 µM (inactive) | 48 µM (inactive) | 46.1 µM (inactive) | 39.7 µM (inactive) | 31 µM (inactive) | 30.7 µM (inactive) | 21.2 µM (inactive) | 45.3 µM (inactive) | > 100 µM (inactive) | 40.5 µM (inactive)
13 | Cc1nn(C(=O)c2ccc(Cl)cc2)c2c1C(/C=C/c1ccccc1)SC(=N)N2 (stereo not given) | > 10 µM (inactive) | > 10 µM (inactive) | > 10 µM (inactive) | > 10 µM (inactive) | > 10 µM (inactive) | > 10 µM (inactive) | > 10 µM (inactive) | > 10 µM (inactive) | > 10 µM (inactive) | > 10 µM (inactive) | > 10 µM (inactive) | > 10 µM (inactive) | > 10 µM (inactive) | > 10 µM (inactive) | > 10 µM (inactive) | > 10 µM (inactive) | > 10 µM (inactive) | > 10 µM (inactive) | > 10 µM (inactive) | > 10 µM (inactive)
14 | CN1CSC(=S)N(c2cccc(C(F)(F)F)c2)C1 | 16.4 µM (inactive) | 25.4 µM (inactive) | 25.1 µM (inactive) | 20.2 µM (inactive) | 23.1 µM (inactive) | 17.1 µM (inactive) | 18.7 µM (inactive) | 28.9 µM (inactive) | 26.2 µM (inactive) | 29.2 µM (inactive) | 36.1 µM (inactive) | 21.5 µM (inactive) | 19.3 µM (inactive) | 32 µM (inactive) | 22.5 µM (inactive) | 25.5 µM (inactive) | 30.4 µM (inactive) | 29.4 µM (inactive) | 16.9 µM (inactive) | 17.3 µM (inactive)
